Reference: patent US9771585B2, “miR-155 inhibitors for treating cutaneous T cell lymphoma (CTCL)” (miRagen Therapeutics, Inc., priority 2015, dated 2017)
l = locked nucleic acid (LNA); d = 2'-deoxy (DNA)

Experiments:
Format in all cases: cell-based, human
miR-155 = experiment: Dual luciferase reporter assay with miR-155 binding site in HeLa cells; conditions: 2 nM oligonucleotide, 10 nM miR-155 mimic, 50 ng reporter
Description: To assess the activity of a miR-155 inhibitor, a dual luciferase reporter assay system was used. In brief, the binding site for miR-155 was cloned into the 3′ UTR of the Renilla luciferase gene located within the commercially-available psiCHECK-2 vector system (Promega). In the absence of a miR-155 inhibitor, the expression of Renilla luciferase protein is repressed by a miR-155 mimic. In the presence of a miR-155 inhibitor, the expression of Renilla luciferase protein is de-repressed. […] Expression of either Renilla or firefly luciferase is measured through detection of light emitted by the luciferase protein.
50 ng of the dual luciferase reporter plasmid containing the miR-155 binding site was transfected into HeLa cells without a miR-155 mimic (“Reporter” only), with 10 nM miR-155 mimic (“Reporter+mimic”), with 10 nM miR-155 mimic and 2 nM of the control oligonucleotide, or with 10 nM miR-155 mimic and 2 nM of a test miR-155 oligonucleotide inhibitor of 11-14 nucleotide lengths (Table 4). The miR-155 mimic was purchased from Dharmacon (miRIDIAN microRNA Human hsa-miR-155-5p mimic; Accession number MIMAT0000646; catalog # C-300647-05-0005) and contains the mature miRNA sequence: -[…]-(SEQ ID NO: 121). The control oligonucleotide used in the experiment had the following sequence: 5′-1Cs.dTs.dAs.1Gs.dAs.1As.dAs.1Gs.1As.dGs.1Ts.dAs.1Gs.1A-3′ (SEQ ID NO: 122).

[1] = system: HuT102 and MyLa cell lines; experiment: Programmed cell death (apoptosis) of CTCL cells after passive uptake; conditions: compared to compound 3
Method: (§1) Passive uptake of antimiR-155 compounds by CTCL cells produced a significant reduction in cellular proliferation and induced programmed cell death.
(§2) Since the level of ATP correlates directly with cell number, ATP was measured to determine the cell number. […] The reduction in cell number was accompanied by an increase in apoptosis as measured by caspase 3/7 activity (FIG. 14B). The caspase 3 and 7 proteins are members of the cysteine aspartic acid-specific protease (caspase) family. The caspase family plays key effector roles in apoptosis in mammalian cells. Caspase activity was normalized to ATP levels, as all cells have a low level of basal caspase activity that can confound the results if not normalized appropriately.

My-La cells [2] = experiment: Caspase 3/7 activity in My-La cells; conditions: compared to compound 3
Description: (§3) FIGS. 17A and 17B show proliferation and activation of caspase 3/7 over time with compounds 3 (SEQ ID NO: 23) and 4 (SEQ ID NO: 25).

miR-155-5p [3] = experiment: Real time PCR of miR-155 direct target genes (four-gene signature) in mycosis fungoides cell lines MJ, HuT102, My-La; conditions: for gene expression signature of four direct miR-155-5p targets versus untreated cells: MJ and HuT102 cells, 10 μM, 72 hours; for target de-repression: both HuT102 and MyLa cell lines, compared to compound 3; for antimiR activity by four-gene signature (Bach1, Jarid2, Picalm, Ship1): cumulative across 2, 10 and 50 μM and three mycosis fungoides cell lines, compared to compounds 1 and 3
Method: CTCL cell lines were cultured in complete growth medium with the addition of antimiR-155 compound 1 (SEQ ID NO: 27), compound 2 (SEQ ID NO: 22), compound 3 (SEQ ID NO: 23), and compound 4 (SEQ ID NO: 25) at concentrations ranging from 2 μM to 50 μM. The antimiRs were added to the medium without any additional components to enhance cellular uptake. Cells were harvested after 72 hours of treatment and total RNA was purified. Real time PCR was performed for 13 direct gene targets of miR-155 (Worm et al. 2009; O'Connell et al. 2010; Zhang et al. 2012; and miRagen unpublished data). The relative fold-change in the expression of the 13 genes in the antimiR-treated cells compared to the untreated cells was calculated. […] Four predicted direct targets that lacked expression in at least one cell line were omitted. The gene expression fold-changes were log10-transformed, plotted on a grayscale, representing the highest relative increase in gene expression, and conversely, the greatest reduction in gene expression.
Four direct gene targets of miR-155-5p (Bach1, Jarid2, Picalm, and Ship1) were chosen for additional analysis, as these four genes were modulated by antimiR-155 in all three mycosis fungoides cell lines (MJ, HuT102, and My-La). These genes were chosen to represent the gene expression signature for antimiR activity in vitro. Additionally, the four-gene signature was used to compare the activity of the antimiR compounds. These gene changes were reproducible over three independent experiments with cells of varying passage numbers. FIGS. 3, 4, 5, 6, and 7 show the fold-change results of this four-gene signature in the HuT102, MJ, HH, My-La, and Hut78 cell lines, respectively. * p-value <0.0001 vs untreated by nonparametric Mann-Whitney test. The Mann-Whitney test was chosen because the variances are unequal between the treatments compared to untreated cells.
The control oligonucleotide was a 14-nucleotide antimiR targeting a C. elegans miRNA not expressed in mammals (control 1). The second oligo is a scramble of the 14-nucleotide sequence of antimiR-155 compound 4 (control 2). The MJ and HuT102 cell lines were incubated with 10 μM antimiR-155 compounds 3 (SEQ ID NO: 23) or 4 (SEQ ID NO: 25) or the two control oligos for 72 hours.

[4] = system: HuT102 and MyLa cell lines; experiment: Cellular proliferation of CTCL cells after passive uptake; conditions: compared to compound 3
Method: as §1, §2

miR-155-5p [5] = experiment: Whole genome expression profiling of mycosis fungoides cell lines (MJ, HuT102, MyLa)
Method: To gain a more complete understanding of the molecular consequences of miR-155 inhibition in mycosis fungoides cell lines, whole genome transcriptome profiling was performed on MJ and HuT102 cell lines treated with antimiR-155 compounds 3 (SEQ ID NO: 23) or 4 (SEQ ID NO: 25) for 4 days (96 hours) or 8 days. The statistically-significant gene expression signature was defined by one-way ANOVA for antimiR-treated cells compared to untreated cells at the same time point. […] The fold-change results are shown in FIGS. 9 and 10 as heat maps, as described for FIG. 2.
(§4) The activity of antimiR-155 compound 4 (SEQ ID NO: 25) was further investigated by treating the third mycosis fungoides cell line, MyLa, with compound 4 (SEQ ID NO: 25) for 4 days and 8 days and profiling the changes in gene expression. To test the specificity of compound 4 (SEQ ID NO: 25), cells of the Sézary syndrome cell line (HuT78) were treated with compound 4 (SEQ ID NO: 25) for 8 days and the changes in gene expression were profiled. Genes that are statistically changed with a false discovery rate (FDR) corrected p-value of <0.05 in response to compound 4 (SEQ ID NO: 25) in three mycosis fungoides cell lines, HuT102, MJ, and My-La, are depicted in the heat map as described above. The total number of genes in the heat map is 324.

miR-155-5p [6] = experiment: Whole genome expression profiling of Sézary syndrome cell line HuT78; conditions: 8 days
Method: as §4

HuT102 cells [7] = experiment: Proliferation (cell number by ATP level) of HuT102 cells; conditions: HuT-102 cells over time; compared with bexarotene
Method: as §2

My-La cells [8] = experiment: Proliferation of My-La cells; conditions: compared to compound 3
Description: as §3

HuT102 cells [9] = experiment: Apoptosis (caspase 3/7 activity) in HuT102 cells
Method: as §2
HuT102 cells were treated with 0.25 μM SAHA and 10 μM compound 3 (SEQ ID NO: 23) or 4 (SEQ ID NO: 25), individually or in combination. Cells were harvested daily to measure ATP levels and caspase 3/7 activity. A similar experiment was performed with 0.50 μM SAHA.

Substance	apoptotic activity [1]	gene expression signature of four direct miR-155-5p targets versus untreated cells (miR-155-5p [3])	target de-repression (miR-155-5p [3])	antimiR activity by four-gene signature (Bach1, Jarid2, Picalm, Ship1) (miR-155-5p [3])	inhibition of proliferation [4]	further results
5′-1Cs.dTs.dAs.1Gs.dAs.1As.dAs.1Gs.1As.dGs.1Ts.dAs.1Gs.1A-3′ (CTAGAAAGAGTAGA; LNA/DNA mix, phosphorothioate backbone; miR-155 control oligo 11317; (1)..(14) May be joined through phosphorothioate bonds; modified_base (1)..(1) May be locked nucleic acid cytidine; modified_base (4)..(4) May be locked nucleic acid guanosine; modified_base (6)..(6) May be locked nucleic acid adenosine; modified_base (8)..(8) May be locked nucleic acid guanosine; modified_base (9)..(9) May be locked nucleic acid adenosine; modified_ba) [control oligonucleotide, control oligonucleotide used in the dual luciferase reporter experiment]						de-repression of Renilla luciferase expression (miR-155): did not de-repress the expression of luciferase
5′-lCs.dAs.lCs.dGs.dAs.lTs.lTs.dAs.lGs.dCs.lAs.lTs.lTs.lA-3′ (CACGATTAGCATTA; sugars from the 5' end ldlddlldldllll, all phosphorothioate, methylation of C not given here) [compound 4]	greater apoptotic activity	statistically significantly different from that of untreated cells	greater target de-repression	more active	greater inhibition of proliferation	activation of caspase 3/7 over time (My-La cells [2]): greater activity; genes up-regulated or down-regulated in all three mycosis fungoides cell lines (miR-155-5p [5]; Day 4 and Day 8 signatures combined, Table 2): 587 genes; magnitude of gene regulation (miR-155-5p [5]; MJ and HuT102, day 4 and day 8, heat map intensity): greater magnitude of gene regulation; change in gene expression (miR-155-5p [6]): did not show much change in the gene expression; effect on cell number (ATP) (HuT102 cells [7]): comparable to that seen with bexarotene; proliferation over time (My-La cells [8]): greater activity; apoptosis (caspase 3/7 activity) in combination with SAHA (HuT102 cells [9]; HuT102, 10 μM compound combined with 0.25 or 0.5 μM SAHA, compared to each treatment alone): increased apoptosis; induction of apoptosis (caspase 3/7 activity normalized to ATP) (HuT102 cells [9]; HuT-102 cells over time, compared with bexarotene): greater induction of apoptosis than bexarotene
5′-lCs.dGs.lAs.lTs.lTs.dAs.lGs.dCs.lAs.lTs.lTs.lA-3′ (CGATTAGCATTA; sugars from the 5' end ldllldldllll, all phosphorothioate, methylation of C not given here) [compound 3]		statistically significantly different from that of untreated cells				
5′-lCs.dGs.lAs.lTs.lTs.lAs.lGs.dCs.lAs.lTs.lTs.lA-3′ (CGATTAGCATTA; sugars from the 5' end l1 d1 l5 d1 l4, all phosphorothioate, methylation of C not given here) [compound 2]	greater apoptotic activity		greater target de-repression	more active	greater inhibition of proliferation	
